Consider six compounds from ChEMBL document CHEMBL5131444, “Essential structure of orexin 1 receptor antagonist YNT-707: Conversion of the 16-cyclopropylmethyl group to the 16-sulfonamide group in d-nor-nalfurafine derivatives” (Bioorg Med Chem Lett, 2022).

As a reminder, the Ki is the equilibrium dissociation constant of an inhibitor or competing ligand from its target. By IC50 is commonly meant the concentration at which inhibition is half-maximal.

Assay [1] deals with T1, Orexin/Hypocretin receptor type 1 (Homo sapiens, UniProt O43613).
T1 sequence (O43613 whole entry): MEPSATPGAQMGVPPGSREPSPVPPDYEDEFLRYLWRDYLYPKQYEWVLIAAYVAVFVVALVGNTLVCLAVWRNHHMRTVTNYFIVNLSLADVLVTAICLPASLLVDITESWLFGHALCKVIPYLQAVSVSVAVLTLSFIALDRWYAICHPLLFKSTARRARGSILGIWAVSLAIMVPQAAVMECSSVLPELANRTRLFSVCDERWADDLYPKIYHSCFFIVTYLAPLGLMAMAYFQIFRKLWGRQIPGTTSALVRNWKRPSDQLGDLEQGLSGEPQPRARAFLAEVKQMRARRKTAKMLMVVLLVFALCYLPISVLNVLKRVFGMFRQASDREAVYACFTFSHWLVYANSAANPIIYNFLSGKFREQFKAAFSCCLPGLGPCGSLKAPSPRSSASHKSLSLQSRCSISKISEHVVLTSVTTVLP
Nature of the assay: Antagonist activity at OX1R (unknown origin) by cell-based calcium assay. The format is functional.

The next assay addresses T2, Orexin receptor type 2 (Homo sapiens, UniProt O43614).
T2 sequence (O43614 whole entry): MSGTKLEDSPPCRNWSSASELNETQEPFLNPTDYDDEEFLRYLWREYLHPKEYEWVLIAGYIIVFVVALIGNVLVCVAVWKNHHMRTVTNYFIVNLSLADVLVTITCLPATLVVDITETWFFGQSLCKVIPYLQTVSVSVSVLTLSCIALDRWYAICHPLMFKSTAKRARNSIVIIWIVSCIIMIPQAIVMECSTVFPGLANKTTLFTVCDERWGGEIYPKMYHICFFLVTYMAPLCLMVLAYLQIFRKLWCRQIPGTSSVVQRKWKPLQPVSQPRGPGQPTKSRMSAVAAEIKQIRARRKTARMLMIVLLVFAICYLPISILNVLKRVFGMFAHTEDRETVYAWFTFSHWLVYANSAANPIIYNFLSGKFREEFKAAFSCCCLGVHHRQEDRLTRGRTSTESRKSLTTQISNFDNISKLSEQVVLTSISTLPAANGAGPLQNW
Nature of the assay: Antagonist activity at OX2R (unknown origin) by cell-based calcium assay.

SMILES strings stand for the structures.

Turning to `COc1ccc2c3c1O[C@H]1[C@H](N(C)C(=O)/C=C/c4ccoc4)CC=C4[C@@H](C2)N(S(=O)(=O)c2ccccc2)CC[C@]431`, the Ki in assay [1] was 2.34 nM. Besides, the IC50 at Orexin receptor type 2 is over 10000 nM.

Consider `COc1ccc2c3c1O[C@H]1[C@H](N(C)C(=O)/C=C/c4ccoc4)CC[C@@]4(O)[C@@H](C2)N(S(=O)(=O)c2ccccc2N(C)C)CC[C@]314`, for which the Ki in assay [1] amounted to 4.75 nM; on Orexin receptor type 2, 1300 nM.

With `COc1ccc2c3c1O[C@H]1[C@H](N(C)C(=O)/C=C/c4ccoc4)CC[C@H]4[C@@H](C2)N(S(=O)(=O)c2ccccc2)CC[C@@]341`, the inhibition constant (Ki) in assay [1] was determined as 23.6 nM. Further, the IC50 at Orexin receptor type 2 is over 10000 nM.

Regarding `COc1ccc2c3c1O[C@H]1[C@H](N(C)C(=O)/C=C/c4ccoc4)CC[C@@]4(O)[C@@H](C2)N(S(=O)(=O)c2ccccc2)CC[C@]314`, the inhibitory constant (Ki) in assay [1] is 16.8 nM. Also, at Orexin receptor type 2, the 50% inhibitory concentration (IC50) is over 10000 nM.

Take `COc1ccc2c3c1O[C@H]1[C@H](N(C)C(=O)/C=C/c4ccoc4)CC=C4[C@@H](C2)N(S(=O)(=O)c2ccccc2N(C)C)CC[C@]431`: in assay [1], the inhibitory constant (Ki) was determined as 8.82 nM. Further, the half-inhibitory concentration (IC50) at Orexin receptor type 2 is over 10000 nM.

Consider `COc1ccc2c3c1O[C@H]1[C@H](N(C)C(=O)/C=C/c4ccoc4)CC[C@H]4[C@@H](C2)N(S(=O)(=O)c2ccccc2N(C)C)CC[C@@]341`, for which the Ki in assay [1] came out at 53.5 nM. Also, on Orexin receptor type 2, the 50% inhibitory concentration (IC50) is over 10000 nM.
